Test results reported in patent US20230096897A1, “Lymphocyte Population and Methods for Producing Same” (AVM Biotechnology, LLC, priority 2020, published 2023).
“Also recorded” adds a separate entry of the source. Like-named read-outs stand apart in the source and are kept apart here.

How the values were obtained:
A20 B cell lymphoma [1] = test: A20 lymphoma study AVM_CANMOD_03 (dose response); type: in vivo, mouse
Method: In a second study (“AVM_CANMOD_03”), BALB/c mice (n=5 per group) were dosed with increasing concentrations of AVM0703 HED DP (7, 18, and 26 mg/kg) on Days 9, 16, 24, and 31 after tumor inoculation. Treatment started when the tumors were approximately […], as opposed to well-established tumors of 150 mm^3 as in study AVM_CANMOD_01.
Based on evidence of pseudogrowth in tumors from AVM0703-treated mice in study AVM_CANMOD_01, tumors (n=2 per group) were sent to HistoTox Labs for slicing and immunohistochemistry. Hematoxylin and eosin stains identified several regions of necrosis and the slides were scored from 0 to 5 depending on severity.

[2] = tested on: peripheral blood mononuclear cells or single cell splenocytes; test: In vitro apoptosis of mouse blood mononuclear cells and splenocytes; type: cell-based; details: up to 500 micromolar; out to 72 hours
Method: Mononuclear cells from peripheral blood of naïve male C57Bl/6 mice or single cell splenocytes were incubated with equivalent concentrations of AVM0703 as the peak blood concentrations of acute high dose AVM0703 achieve in vivo.
Blood and spleens were taken from naïve C57B16 mice. Mononuclear cells were isolated from blood and single cell splenocytes were isolated from the spleen. […] Therefore, the complete in vivo T and B lymphocyte ablation appears to be mediated by the AVM-NKT, and not a receptor based mechanism such as activation of a glucocorticoid receptor.

AVM-NKT cells = details: for Time after treatment at which AVM-NKT cells appear in peripheral blood: high doses of glucocorticoid receptor agonists
A20 cells = test: In vitro apoptosis of A20 cells; type: cell-based, mouse; details: 72 hours after high dose dexamethasone treatment in vitro
[3] = tested on: peripheral blood lymphocytes
Method: For initial lymphodepletion studies, naïve C57Bl/6 mice were treated with 18 mg/kg HED DP by oral gavage. Male C57BL/6 mice were obtained from Taconic Bioscience (Germantown, N.Y.) and acclimated to laboratory conditions for at least one week. […] When mice reached study timepoint, they were euthanized as follows. Mice were anesthetized with isoflurane gas. Once anesthetized, blood was drawn via cardiac puncture and place immediately in heparin-lined microtubes. 10 mL of 5 U/mL of Heparin/PBS was used for infused by slow push for retrograde perfusion via the abdominal aorta to flush out all remaining blood from the vasculature. […] The remaining blood was sent to Phoenix Labs (Mukilteo, Wash.) for Complete Blood Counts and Clinical Chemistries

female NOD mice [4] = test: Prevention or delay of hyperglycemia in spontaneously diabetic female NOD mice; type: in vivo, mouse; details: for First Onset of hyperglycemia (weeks of age): dosing from 10 weeks of age, AVM0703 single oral HED 18 or 30 mg/kg, cyclosporine 5 then 10 mg/kg twice weekly, venetoclax 25 mg/kg; for % Hyperglycemic at 22 wks of age / Median Time to diabetes (days after 10 wks of age): same groups
Method: Female NOD mice were ordered at 9 weeks of age.
Body weights and blood glucose levels were monitored weekly. Body condition was monitored three times per week. Oral glucose tolerance was determined in all surviving mice who reached 30 weeks of age. Remaining mice were necropsied and autoreactive lymphocytes in the pancreas and adjacent lymph nodes were determined by flow cytometry. Pancreatitis was determined by H&E staining (8 out of 15 per group). Pancreatic Beta cell surface area was measured by staining for insulin. […] Pancreas and pancreas lymph nodes were examined for autoreactive, insulin-specific CD4+ T cells by using a magnetic enrichment method together with tetramer reagents.

[5] = tested on: CD3high, CD45dim, CD49b+ cells; test: Venetoclax pre-treatment before high dose DSP in female NOD mice; type: in vivo, mouse; details: 48 hours
Method: Female NOD mice of 10 weeks of age are treated with 12.5 mg/kg up to 50 mg/kg venetoclax 6-18 hours before oral gavage of a HED 30 mg/kg DSP dose. […] CD3high, CD45dim, CD49b+ cells are reduced from—70 cells/microliter with DSP alone to—40 cells/microliter with 12.5 mg/kg venetoclax pretreatment, to—20 cells/microliter with 25 mg/kg venetoclax pretreatment, to—15 cells/microliter with 50 mg/kg venetoclax pretreatment. Venetoclax is a Bcl-2 inhibitor.

[6] = pharmacodynamic (biologic) half-life; cited from earlier work
A20 B cell lymphoma [7] = test: A20 lymphoma study AVM_CANMOD_01 (repeat dosing); type: in vivo, mouse
A20 B cell lymphoma [8] = test: A20 B-cell lymphoma models, summary of studies; type: in vivo, mouse
Excerpt: The mouse A20 lymphoma model is a very aggressive tumor model because it employs multiple direct (expression of immunoinhibitory molecule PD-L1, IDO, and IL-10, and lack of expression of CD80 costimulatory molecule) and indirect (downregulation of APC function and induction of Treg cells) immune evasion mechanisms. In addition, in the studies described in the following, AVM0703 was not dosed until A20 tumors were very well-established, at between ˜120 to 400 mm^3 in volume.
Male BALB/c mice were inoculated subcutaneously in the flank with A20 B lymphoma cells embedded in Matrigel. Tumor volumes were monitored by caliper measurements, and when the tumors were well established at about 150 mm^3, or very well established for study “AVM_CANMOD_05” at about 400 mm^3, mice were treated with AVM0703 at HED doses of 7, 18, 22, or 25 mg/kg. Endpoint is typically defined as tumor volume of 1500 mm^3.
These mice were pooled and a contingency table analysis was performed using Fisher's exact test.

A20 B cell lymphoma [9] = test: A20 lymphoma study AVM_CANMOD_05, lymphodepletion subset
female NOD mice [10] = test: Reversal of early onset and established diabetes in female NOD mice; details: mouse, in vivo
Method: Female NOD mice are ordered at 9 weeks of age. Blood glucose levels are measured weekly starting at 10 weeks of age. Once a mouse has non-fasting blood glucose above 250 mg/dl, another measure is taken the following day.
For reversal of new-onset diabetes AVM0703 dosing is started one day after a mouse has had two consecutive days of elevated non-fasting blood glucose levels. Insulin pellets are implanted subcutaneously on the second day of elevated blood glucose levels. For reversal of established diabetes, two consecutive weeks of elevated blood glucose are measured, insulin pellets are implanted on day 8 after the first day of measured elevated blood glucose levels and AVM0703 is dosed on day 14 after the first day of measured elevated blood glucose levels.

[11] = tested on: CCRF-CEM human T cell lymphoma; test: CCRF-CEM human T cell lymphoma xenograft in NCr nude mice (AVM_CANMOD_06)
Method: A pilot study (“AVM_CANMOD_06”) was performed to investigate anti-tumor efficacy of AVM0703 in a human T cell lymphoma model, CCRF-CEM.
Tumor volume was assessed 3 times per week and endpoint was defined as either a tumor volume greater than 1500 mm^3 or greater than a 20% loss from initial body weight measurement.

A20 B cell lymphoma [12] = test: A20 lymphoma study AVM_CANMOD_05, endpoint analysis subset; type: in vivo, mouse
[13] = high-dose dexamethasone, naïve mice
[14] = 18, 22, and 25 mg/kg pooled, n = 40

SMILES: C[C@@H]1C[C@H]2[C@@H]3CCC4=CC(=O)C=C[C@]4(C)[C@@]3(F)[C@@H](O)C[C@]2(C)[C@@]1(O)C(=O)COP(=O)(O)O [dexamethasone phosphate, reference compound]
- Tumor CD3 expression (immunohistochemistry) (A20 B cell lymphoma [1]; 7, 18, 25 mg/kg DP vs placebo): visually decreased
- Tumor NKp46 staining (A20 B cell lymphoma [1]; 7, 18, 25 mg/kg DP vs placebo): visual increase
- HistoTox Labs Necrosis H&E (0-5) (A20 B cell lymphoma [1]; individual tumors, 18 mg/kg, tumor 158 mm^3 at dosing): greatest degree of necrosis
- Apoptosis [2]: no in vitro apoptosis was observed

SMILES: C[C@H]1C[C@H]2[C@@H]3CCC4=CC(=O)C=C[C@]4(C)[C@@]3(F)[C@@H](O)C[C@]2(C)[C@@]1(O)C(=O)CO [betamethasone]
- Time after treatment at which AVM-NKT cells appear in peripheral blood (AVM-NKT cells): around 48 hours

SMILES: C[C@@H]1C[C@H]2[C@@H]3CCC4=CC(=O)C=C[C@]4(C)[C@@]3(F)[C@@H](O)C[C@]2(C)[C@@]1(O)C(=O)CO [dexamethasone]
- Time after treatment at which AVM-NKT cells appear in peripheral blood (AVM-NKT cells): around 48 hours
- Time to induction of AVM-NKT cells in the spleen (AVM-NKT cells; normal mice, after dexamethasone dosing): ≤ 48 h
- Apoptosis of A20 cells (A20 cells): about 30%
- Platelet numbers ([3]; 18 mg/kg HED DP): spared; also recorded: does not affect
- Number of live hematopoietic stem cells ([3]; 18 mg/kg HED DP, 6 hours to 35 days): does not significantly alter
- Basophils [3, 13]: reduced only at the 6 hour time point
- Eosinophils [3, 13]: reduced only at the 24 and 48 hour time points
- HSCs and MSCs [3, 13]: spared or increased
- RBCs [3, 13]: spared

SMILES: CC1(C)CCC(CN2CCN(c3ccc(C(=O)NS(=O)(=O)c4ccc(NCC5CCOCC5)c([N+](=O)[O-])c4)c(Oc4cnc5[nH]ccc5c4)c3)CC2)=C(c2ccc(Cl)cc2)C1 [Venetoclax, venetoclax, reference compound]
- First Onset of hyperglycemia (weeks of age) (female NOD mice [4]): 14 weeks of age
- % Hyperglycemic at 22 wks of age (female NOD mice [4]): 90%
- Median Time to diabetes (days after 10 wks of age) (female NOD mice [4]): 51 days
- CD3high, CD45dim, CD49b+ cells mobilized into the blood ([5]; 12.5 mg/kg venetoclax 6-18 hours before HED 30 mg/kg DSP): 40 cells/microliter
- CD3high, CD45dim, CD49b+ cells mobilized into the blood ([5]; 25 mg/kg venetoclax 6-18 hours before HED 30 mg/kg DSP): 20 cells/microliter
- CD3high, CD45dim, CD49b+ cells mobilized into the blood ([5]; 50 mg/kg venetoclax 6-18 hours before HED 30 mg/kg DSP): 15 cells/microliter

SMILES: C[C@]12C=CC(=O)C=C1CC[C@@H]1[C@@H]2C(=O)C[C@@]2(C)[C@H]1CC[C@]2(O)C(=O)CO [prednisone]
- Biologic half-life [6]: about 20 hours

SMILES: C[C@@H]1C[C@H]2[C@@H]3CCC4=CC(=O)C=C[C@]4(C)[C@@]3(F)[C@@H](O)C[C@]2(C)[C@@]1(O)C(=O)CO [dexamethasone base]
- Induction of AVM-NKT cells (dose escalation) (AVM-NKT cells; 15 mg/kg HED): particularly robust production
- Induction of AVM-NKT cells (dose escalation) (AVM-NKT cells; 6+6 mg/kg HED dosing schedule): particularly robust production
- Induction of AVM-NKT cells (dose escalation) (AVM-NKT cells; single dose between 6-12 mg/kg HED): can induce AVM-NKT cells

SMILES: C[C@@H]1C[C@H]2[C@@H]3CCC4=CC(=O)C=C[C@]4(C)[C@@]3(F)[C@@H](O)C[C@]2(C)[C@@]1(O)C(=O)CO [AVM0703, dexamethasone]
- Mice reaching the 20% body weight loss threshold (A20 B cell lymphoma [7]; after 46 days and 8 doses, n=5): One mouse
- Body weight (A20 B cell lymphoma [7]; repeat 18 mg/kg HED DP dosing, up to 7 doses): Does Not Reduce Body Weight
- HistoTox Labs Necrosis H&E (0-5), Average (A20 B cell lymphoma [8]; 18 mg/kg, n = 15): 2.7 n = 15
- MetaMorph Area of Live Tumor, Average (A20 B cell lymphoma [8]; 18 mg/kg, n = 18): 66^ n = 18 AU × 1000
- MetaMorph Percent Necrotic, Average (A20 B cell lymphoma [8]; 18 mg/kg, n = 18): 59 n = 18%
- MetaMorph Area of Live Tumor, Average (A20 B cell lymphoma [8]; 22 mg/kg, n = 11): 87 n = 11 AU × 1000
- MetaMorph Percent Necrotic, Average (A20 B cell lymphoma [8]; 22 mg/kg, n = 11): 53 n = 11%
- MetaMorph Area of Live Tumor, Average (A20 B cell lymphoma [8]; 25 mg/kg, n = 11): 77 n = 11 AU × 1000
- MetaMorph Percent Necrotic, Average (A20 B cell lymphoma [8]; 25 mg/kg, n = 11): 63 n = 11%
- MetaMorph Area of Live Tumor, Average (A20 B cell lymphoma [8]; [14]): 75 n = 40 AU × 1000
- MetaMorph Percent Necrotic, Average (A20 B cell lymphoma [8]; [14]): 59 n = 40%
- Sudden deaths (A20 B cell lymphoma [1]; 7, 18, 26 mg/kg): no sudden deaths
- Spleen, thymus, colon, pancreas weights (A20 B cell lymphoma [1]; 7, 18, 26 mg/kg, at euthanization): No significant differences
- Additional median survival compared with placebo (A20 B cell lymphoma [1]; 18 and 26 mg/kg, not significant): approximately 6 days
- Tumor necrosis (A20 B cell lymphoma [1]; A20-3 DRC, 18&26 mg/kg): 18&26 mg/kg 50-80% necrotic
- Glucose levels (A20 B cell lymphoma [9]; 18 mg/kg HED, did not reach hypoglycemic levels): significantly reduced
- Tumor weight, tumor example (A20 B cell lymphoma [9]; 25 mg/kg, placebo example 0.54 g): 0.086 g
- Tumor volume, tumor example (A20 B cell lymphoma [9]; 25 mg/kg, placebo example 956 mm^3): 203.25 mm^3
- Glucose levels (A20 B cell lymphoma [9]; tumor model): not elevated
- Body weight loss or poor body condition (female NOD mice [10]): without the body weight loss or poor body condition
- Mice with significantly delayed onset (female NOD mice [4]; AVM0703 alone): 60%
- Mice in which diabetes was prevented (female NOD mice [4]; AVM0703 alone, 5 month study): 40%
- First Onset of hyperglycemia (weeks of age) (female NOD mice [4]): 20 weeks of age
- % Hyperglycemic at 22 wks of age (female NOD mice [4]): 60%
- Median Time to diabetes (days after 10 wks of age) (female NOD mice [4]): 113 days
- Body condition compared with all other groups (female NOD mice [4]; throughout the 5 month study): significantly better body condition
- Day after tumor inoculation on which one mouse was found dead ([11]; 18 mg/kg weekly): 89 days
- Tumor lysis ([11]; one treated mouse): Significant tumor lysis; also recorded: Evidence of Tumor Lysis Syndrome
- Tumor resorbed (A20 B cell lymphoma [12]; 1 mouse treated at 18 mg/kg): 99.5%
- Overall complete response rate (A20 B cell lymphoma [12]; both subsets of AVM_CANMOD_05): 9%
- MetaMorph Area of Live Tumor (A20 B cell lymphoma [12]; individual mice, 18 mg/kg): 27 AU × 1000
- MetaMorph Percent Necrotic (A20 B cell lymphoma [12]; individual mice, 18 mg/kg): 69%
